Test results: PubChem BioAssay (NCI)
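Following 48 hours of exposure in 96-well plates, responses at five concentrations were used to interpolate endpoints linearly. At the GI50, growth is halved. Definition used: TGI = concentration required for complete inhibition of growth.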

Experiments:
Assay in all cases: DTP human tumour cell line panel, 48 h
786-0 renal = system: 786-0 renal
A498 renal = system: A498 renal
A549 NSCLC = system: A549 NSCLC
ACHN renal = system: ACHN renal
BT-549 breast = system: BT-549 breast
CAKI-1 renal = system: CAKI-1 renal
CCRF-CEM leukemia = system: CCRF-CEM leukemia
COLO 205 colon = system: COLO 205 colon
DU-145 prostate = system: DU-145 prostate
EKVX NSCLC = system: EKVX NSCLC
HCC-2998 colon = system: HCC-2998 colon
HCT-116 colon = system: HCT-116 colon
HCT-15 colon = system: HCT-15 colon
HL-60(TB) leukemia = system: HL-60(TB) leukemia
HOP-62 NSCLC = system: HOP-62 NSCLC
HOP-92 NSCLC = system: HOP-92 NSCLC
HS 578T breast = system: HS 578T breast
HT29 colon = system: HT29 colon
IGROV1 ovarian = system: IGROV1 ovarian
K-562 leukemia = system: K-562 leukemia
KM12 colon = system: KM12 colon
LOX IMVI melanoma = system: LOX IMVI melanoma
M14 melanoma = system: M14 melanoma
MALME-3M melanoma = system: MALME-3M melanoma
MCF7 breast = system: MCF7 breast
MDA-MB-231 breast = system: MDA-MB-231 breast
MDA-MB-435 = system: MDA-MB-435
MDA-MB-468 breast = system: MDA-MB-468 breast
MOLT-4 leukemia = system: MOLT-4 leukemia
NCI-H226 lung = system: NCI-H226 lung
NCI-H23 lung = system: NCI-H23 lung
NCI-H460 lung = system: NCI-H460 lung
NCI-H522 lung = system: NCI-H522 lung
NCI/ADR-RES ovarian = system: NCI/ADR-RES ovarian
OVCAR-3 ovarian = system: OVCAR-3 ovarian
OVCAR-4 ovarian = system: OVCAR-4 ovarian
OVCAR-5 ovarian = system: OVCAR-5 ovarian
OVCAR-8 ovarian = system: OVCAR-8 ovarian
PC-3 prostate = system: PC-3 prostate
RPMI-8226 leukemia = system: RPMI-8226 leukemia
RXF 393 renal = system: RXF 393 renal
SF-268 CNS = system: SF-268 CNS
SF-295 CNS = system: SF-295 CNS
SF-539 CNS = system: SF-539 CNS
SK-MEL-2 melanoma = system: SK-MEL-2 melanoma
SK-MEL-28 melanoma = system: SK-MEL-28 melanoma
SK-MEL-5 melanoma = system: SK-MEL-5 melanoma
SK-OV-3 ovarian = system: SK-OV-3 ovarian
SN12C renal = system: SN12C renal
SNB-19 CNS = system: SNB-19 CNS
SNB-75 CNS = system: SNB-75 CNS
SW-620 colon = system: SW-620 colon
T-47D breast = system: T-47D breast
TK-10 renal = system: TK-10 renal
U251 CNS = system: U251 CNS
UACC-257 melanoma = system: UACC-257 melanoma
UACC-62 melanoma = system: UACC-62 melanoma
UO-31 renal = system: UO-31 renal

CC(C)c1sc(NC(=O)c2cc(NC(=O)c3cc(NC(=O)c4cscn4)cn3C)cn2C)nc1C(=O)NCCCN(C)C
GI50 (786-0 renal): 6.16 µM
TGI (786-0 renal): 15.5 µM
GI50 (A498 renal): > 28.3 µM
TGI (A498 renal): > 28.3 µM
GI50 (A549 NSCLC): 9.72 µM
TGI (A549 NSCLC): > 28.3 µM
GI50 (ACHN renal): > 28.3 µM
TGI (ACHN renal): > 28.3 µM
GI50 (BT-549 breast): 0.994 µM
TGI (BT-549 breast): 4.45 µM
GI50 (CAKI-1 renal): 17.5 µM
TGI (CAKI-1 renal): > 28.3 µM
GI50 (CCRF-CEM leukemia): 2.14 µM
TGI (CCRF-CEM leukemia): > 28.3 µM
GI50 (COLO 205 colon): 1.86 µM
TGI (COLO 205 colon): 5.68 µM
GI50 (DU-145 prostate): 5.49 µM
TGI (DU-145 prostate): > 28.3 µM
GI50 (EKVX NSCLC): 5.84 µM
TGI (EKVX NSCLC): > 28.3 µM
GI50 (HCC-2998 colon): 3.86 µM
TGI (HCC-2998 colon): 7.92 µM
GI50 (HCT-116 colon): 2.29 µM
TGI (HCT-116 colon): 8.44 µM
GI50 (HCT-15 colon): > 28.3 µM
TGI (HCT-15 colon): > 28.3 µM
GI50 (HL-60(TB) leukemia): 6.12 µM
TGI (HL-60(TB) leukemia): 18.8 µM
GI50 (HOP-62 NSCLC): 6.43 µM
TGI (HOP-62 NSCLC): 19.6 µM
GI50 (HOP-92 NSCLC): 0.846 µM
TGI (HOP-92 NSCLC): 9.01 µM
GI50 (HS 578T breast): 4.55 µM
TGI (HS 578T breast): 26.4 µM
GI50 (HT29 colon): 5.35 µM
TGI (HT29 colon): 10.9 µM
GI50 (IGROV1 ovarian): 4.48 µM
TGI (IGROV1 ovarian): 12.3 µM
GI50 (K-562 leukemia): 1.85 µM
TGI (K-562 leukemia): > 28.3 µM
GI50 (KM12 colon): 11.3 µM
TGI (KM12 colon): > 28.3 µM
GI50 (LOX IMVI melanoma): 0.739 µM
TGI (LOX IMVI melanoma): 2.21 µM
GI50 (M14 melanoma): 5.25 µM
TGI (M14 melanoma): 14.2 µM
GI50 (MALME-3M melanoma): 3.78 µM
TGI (MALME-3M melanoma): 8.26 µM
GI50 (MCF7 breast): 3.58 µM
TGI (MCF7 breast): 10.4 µM
GI50 (MDA-MB-231 breast): 5.63 µM
TGI (MDA-MB-231 breast): 21.8 µM
GI50 (MDA-MB-435): 3.86 µM
TGI (MDA-MB-435): 19.8 µM
GI50 (MDA-MB-468 breast): 1.03 µM
TGI (MDA-MB-468 breast): 4.68 µM
GI50 (MOLT-4 leukemia): 9.35 µM
TGI (MOLT-4 leukemia): > 28.3 µM
GI50 (NCI-H226 lung): 3.22 µM
TGI (NCI-H226 lung): > 28.3 µM
GI50 (NCI-H23 lung): 4.51 µM
TGI (NCI-H23 lung): 10.4 µM
GI50 (NCI-H460 lung): 7.6 µM
TGI (NCI-H460 lung): 22 µM
GI50 (NCI-H522 lung): 1.08 µM
TGI (NCI-H522 lung): 5.58 µM
GI50 (NCI/ADR-RES ovarian): > 28.3 µM
TGI (NCI/ADR-RES ovarian): > 28.3 µM
GI50 (OVCAR-3 ovarian): 2.03 µM
TGI (OVCAR-3 ovarian): > 28.3 µM
GI50 (OVCAR-4 ovarian): 5.34 µM
TGI (OVCAR-4 ovarian): > 28.3 µM
GI50 (OVCAR-5 ovarian): 6.29 µM
TGI (OVCAR-5 ovarian): 21 µM
GI50 (OVCAR-8 ovarian): 7.86 µM
TGI (OVCAR-8 ovarian): 26 µM
GI50 (PC-3 prostate): 1.25 µM
TGI (PC-3 prostate): 24.8 µM
GI50 (RPMI-8226 leukemia): 28.1 µM
TGI (RPMI-8226 leukemia): > 28.3 µM
GI50 (RXF 393 renal): 1.84 µM
TGI (RXF 393 renal): 6.99 µM
GI50 (SF-268 CNS): 2.63 µM
TGI (SF-268 CNS): > 28.3 µM
GI50 (SF-295 CNS): 9.83 µM
TGI (SF-295 CNS): > 28.3 µM
GI50 (SF-539 CNS): 1.08 µM
TGI (SF-539 CNS): 4.51 µM
GI50 (SK-MEL-2 melanoma): 3.75 µM
TGI (SK-MEL-2 melanoma): 7.88 µM
GI50 (SK-MEL-28 melanoma): 3.17 µM
TGI (SK-MEL-28 melanoma): 11.9 µM
GI50 (SK-MEL-5 melanoma): 5.35 µM
TGI (SK-MEL-5 melanoma): 11.1 µM
GI50 (SK-OV-3 ovarian): 1.37 µM
TGI (SK-OV-3 ovarian): 16.3 µM
GI50 (SN12C renal): 5.89 µM
TGI (SN12C renal): > 28.3 µM
GI50 (SNB-19 CNS): 0.838 µM
TGI (SNB-19 CNS): > 28.3 µM
GI50 (SNB-75 CNS): 0.829 µM
TGI (SNB-75 CNS): 11.7 µM
GI50 (SW-620 colon): 4.21 µM
TGI (SW-620 colon): 16.3 µM
GI50 (T-47D breast): 1.07 µM
TGI (T-47D breast): 12.5 µM
GI50 (TK-10 renal): > 28.3 µM
TGI (TK-10 renal): > 28.3 µM
GI50 (U251 CNS): 1.14 µM
TGI (U251 CNS): > 28.3 µM
GI50 (UACC-257 melanoma): 5.78 µM
TGI (UACC-257 melanoma): 16.8 µM
GI50 (UACC-62 melanoma): 3.57 µM
TGI (UACC-62 melanoma): 7.22 µM
GI50 (UO-31 renal): > 28.3 µM
TGI (UO-31 renal): > 28.3 µM
